Test results reported in patent publication US20250163047A1, “HETEROCYCLIC COMPOUNDS, COMPOSITIONS THEREOF, AND METHODS OF TREATMENT THEREWITH” (BeiGene, Ltd., priority 2022, published 2025).
pIC50: −log10 of the molar value.

Assays:
Cbl-b (aa36-427) = target: T1, Cbl-b (aa36-427) (Homo sapiens, UniProt Q13191); test: Co-expressed Cbl-b with BirA biochemical assay (CBLB/E2-Ub binding, HTRF); settings: 0.6 nM Cbl-b co-expressed with BirA, HTRF; read-out: co-express CBLB/E2-Ub-binding assay IC50
T1 construct: Cbl-b (aa36-427, in-house); made in house
Source text: (§1) The assay in the absence of a Cbl-b/Cbl inhibitor, where phosphorylation of Cbl-b/Cbl by the Src kinase allows UbcH5B-Ub to bind to Cbl-b/Cbl and brings the Bodipy-Fluorescein tagged ubiquitin in proximity to the streptavidin-terbium bound to the N-terminal biotinylated Avi-tagged Cbl-b/Cbl. […] The lack of a FRET signal indicates Cbl-b/Cbl is inhibited by the Cbl-b/Cbl inhibitor.

Cbl (aa49-434) = target: T2, Cbl (aa49-434) (Homo sapiens, UniProt P22681); test: Co-expressed Cbl with BirA biochemical assay (CBL/E2-Ub binding, HTRF); settings: 0.6 nM Cbl co-expressed with BirA, read-out: co-express CBL/E2-Ub-binding assay IC50
T2 construct: Cbl (aa49-434, in-house); made in house
T2 sequence (P22681 49-434): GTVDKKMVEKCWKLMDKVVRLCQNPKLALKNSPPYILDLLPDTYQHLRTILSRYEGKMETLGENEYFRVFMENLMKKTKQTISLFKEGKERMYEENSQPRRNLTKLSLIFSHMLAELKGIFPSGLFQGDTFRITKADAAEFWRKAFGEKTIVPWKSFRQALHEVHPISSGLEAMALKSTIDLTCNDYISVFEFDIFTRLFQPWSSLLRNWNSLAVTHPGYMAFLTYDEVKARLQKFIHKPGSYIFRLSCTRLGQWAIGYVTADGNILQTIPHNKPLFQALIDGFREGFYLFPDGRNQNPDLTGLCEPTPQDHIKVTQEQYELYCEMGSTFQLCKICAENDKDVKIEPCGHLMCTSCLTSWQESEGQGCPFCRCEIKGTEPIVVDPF
Source text: as §1

T1 sequence (Q13191 36-427): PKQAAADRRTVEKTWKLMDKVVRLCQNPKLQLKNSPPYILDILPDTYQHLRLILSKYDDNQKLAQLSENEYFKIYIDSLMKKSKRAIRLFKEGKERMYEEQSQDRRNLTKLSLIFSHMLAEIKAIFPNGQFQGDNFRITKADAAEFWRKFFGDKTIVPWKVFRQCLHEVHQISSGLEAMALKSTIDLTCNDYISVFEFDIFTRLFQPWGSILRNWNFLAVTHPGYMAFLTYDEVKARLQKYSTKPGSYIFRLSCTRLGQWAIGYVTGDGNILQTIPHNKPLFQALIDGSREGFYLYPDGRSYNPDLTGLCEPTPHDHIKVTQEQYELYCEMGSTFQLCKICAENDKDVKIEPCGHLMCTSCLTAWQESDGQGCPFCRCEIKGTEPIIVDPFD

Cn1cnnc1[C@]1(c2cccc(NC(=O)c3cc(CNC4(C)CCC4)cn4ccnc34)c2)C[C@H](C)C1 [Compound A39, N-(3-((1s, 3s)-3-methyl-1-(4-methyl-4H-1,2,4-triazol-3-yl)cyclobutyl)phenyl)-6-(((1-methylcyclobutyl)amino)methyl)imidazo[1,2-a]pyridine-8-carboxamide]
pIC50 (Cbl-b (aa36-427)): 8.57 | pIC50 (Cbl (aa49-434)): 7.85

Cn1cnnc1CC1(c2cccc(NC(=O)c3cc(CNC4CCCCC4)cn4ccnc34)c2)COC1 [Compound A9, 6-((cyclohexylamino)methyl)-N-(3-(3-((4-methyl-4H-1,2,4-triazol-3-yl)methyl)oxetan-3-yl)phenyl)imidazo[1,2-a]pyridine-8-carboxamide]
pIC50 (Cbl-b (aa36-427)): 7.89 | pIC50 (Cbl (aa49-434)): 7.61

C[C@@H]1CN(Cc2cc(C(=O)Nc3cccc([C@]4(c5nncn5C)C[C@@H](C)C4)c3)nc3c2NCC32CC2)CC[C@@H]1F [Compound C50, 7′-(((3R,4S)-4-fluoro-3-methylpiperidin-1-yl)methyl)-N-(3-((1s,3S)-3-methyl-1-(4-methyl-4H-1,2,4-triazol-3-yl)cyclobutyl)phenyl)-1′,2′-dihydrospiro[cyclopropane-1,3′-pyrrolo[3,2-b]pyridine]-5′-carboxamide]
pIC50 (Cbl-b (aa36-427)): 9.15 | pIC50 (Cbl (aa49-434)): 9.10

C[C@H](NCc1cc(C(=O)Nc2cccc([C@]3(c4nncn4C)C[C@@H](CC#N)C3)c2)nc2c1CCC2(F)F)C1CC1 [Compound C43, N-(3-((1s,3R)-3-(cyanomethyl)-1-(4-methyl-4H-1,2,4-triazol-3-yl)cyclobutyl)phenyl)-4-((((S)-1-cyclopropylethyl)amino)methyl)-7,7-difluoro-6,7-dihydro-5H-cyclopenta[b]pyridine-2-carboxamide]
pIC50 (Cbl-b (aa36-427)): 8.89 | pIC50 (Cbl (aa49-434)): 8.00

Cn1cnnc1[C@]1(c2cncc(NC(=O)c3cc(CNCC4CCC4)c4[nH]cc(Cl)c4n3)c2)C[C@H](C)C1 [Compound B53, 3-chloro-7-(((cyclobutylmethyl)amino)methyl)-N-(5-((1s, 3s)-3-methyl-1-(4-methyl-4H-1,2,4-triazol-3-yl)cyclobutyl)pyridin-3-yl)-1H-pyrrolo[3,2-b]pyridine-5-carboxamide]
pIC50 (Cbl-b (aa36-427)): 8.51 | pIC50 (Cbl (aa49-434)): 8.01

Cn1cnnc1[C@]1(c2cncc(NC(=O)c3cc(CNC4(C)CCC4)c4[nH]cc(F)c4n3)c2)C[C@H](C)C1 [Compound B49, 3-fluoro-N-(5-((1s, 3s)-3-methyl-1-(4-methyl-4H-1,2,4-triazol-3-yl)cyclobutyl)pyridin-3-yl)-7-(((1-methylcyclobutyl)amino)methyl)-1H-pyrrolo[3,2-b]pyridine-5-carboxamide]
pIC50 (Cbl-b (aa36-427)): 8.49 | pIC50 (Cbl (aa49-434)): 7.85

C[C@H]1CCCN(Cc2cc(C(=O)Nc3cccc(C4(Cc5nncn5C)COC4)c3)c3nc(F)cn3c2)C1 [Compound A7, (S)-2-fluoro-N-(3-(3-((4-methyl-4H-1,2,4-triazol-3-yl)methyl)oxetan-3-yl)phenyl)-6-((3-methylpiperidin-1-yl)methyl)imidazo[1,2-a]pyridine-8-carboxamide]
pIC50 (Cbl-b (aa36-427)): 8.36 | pIC50 (Cbl (aa49-434)): 7.84

CC(C)CNCc1cc(C(=O)Nc2cncc([C@]3(c4nncn4C)C[C@@H](C)C3)c2)c2nccn2c1 [Compound A78, 6-((isobutylamino)methyl)-N-(5-((1s, 3s)-3-methyl-1-(4-methyl-4H-1,2,4-triazol-3-yl)cyclobutyl)pyridin-3-yl)imidazo[1,2-a]pyridine-8-carboxamide]
pIC50 (Cbl-b (aa36-427)): 8.92 | pIC50 (Cbl (aa49-434)): 8.64

Cn1cnnc1[C@]1(c2cncc(NC(=O)c3cc(CNC4(C)CC4)cn4c(F)cnc34)c2)C[C@H](C)C1 [Compound A74, 3-fluoro-N-(5-((1s, 3s)-3-methyl-1-(4-methyl-4H-1,2,4-triazol-3-yl)cyclobutyl)pyridin-3-yl)-6-(((1-methylcyclopropyl)amino)methyl)imidazo[1,2-a]pyridine-8-carboxamide]
pIC50 (Cbl-b (aa36-427)): 8.92 | pIC50 (Cbl (aa49-434)): 8.38

Cn1cnnc1[C@]1(c2cccc(NC(=O)c3cc(CNC4(C)CC4)cn4c(Cl)cnc34)c2)C[C@H](C)C1 [Compound A67, 3-chloro-N-(3-((1s, 3s)-3-methyl-1-(4-methyl-4H-1,2,4-triazol-3-yl)cyclobutyl)phenyl)-6-(((1-methylcyclopropyl)amino)methyl)imidazo[1,2-a]pyridine-8-carboxamide]
pIC50 (Cbl-b (aa36-427)): 9.30 | pIC50 (Cbl (aa49-434)): 8.55

Cn1cnnc1[C@]1(c2cccc(NC(=O)c3cc(CNC4(C)CCC4)cn4c(F)cnc34)c2)C[C@H](C)C1 [Compound A44, 3-fluoro-N-(3-((1s, 3s)-3-methyl-1-(4-methyl-4H-1,2,4-triazol-3-yl)cyclobutyl)phenyl)-6-(((1-methylcyclobutyl)amino)methyl)imidazo[1,2-a]pyridine-8-carboxamide]
pIC50 (Cbl-b (aa36-427)): 8.74 | pIC50 (Cbl (aa49-434)): 8.11

Cn1cnnc1[C@]1(c2cccc(NC(=O)c3cc(CNC4(C)CC4)cc4c(F)cnn34)c2)C[C@H](C)C1 [Compound A92, 3-fluoro-N-(3-((1s, 3s)-3-methyl-1-(4-methyl-4H-1,2,4-triazol-3-yl)cyclobutyl)phenyl)-5-(((1-methylcyclopropyl)amino)methyl)pyrazolo[1,5-a]pyridine-7-carboxamide]
pIC50 (Cbl-b (aa36-427)): 9.40 | pIC50 (Cbl (aa49-434)): 8.60

Cn1cnnc1[C@]1(c2cccc(NC(=O)c3cc(CNC4(C)CC4)cn4c(F)cnc34)c2)C[C@H](C)C1 [Compound A45, 3-fluoro-N-(3-((1s, 3s)-3-methyl-1-(4-methyl-4H-1,2,4-triazol-3-yl)cyclobutyl)phenyl)-6-(((1-methylcyclopropyl)amino)methyl)imidazo[1,2-a]pyridine-8-carboxamide]
pIC50 (Cbl-b (aa36-427)): 8.92 | pIC50 (Cbl (aa49-434)): 8.46

C[C@H]1CCCN(Cc2cc(C(=O)Nc3cccc([C@]4(c5nncn5C)C[C@@H](CC#N)C4)c3)nc3c(Cl)c[nH]c23)C1 [Compound B16, 3-chloro-N-(3-((1s,3R)-3-(cyanomethyl)-1-(4-methyl-4H-1,2,4-triazol-3-yl)cyclobutyl)phenyl)-7-(((S)-3-methylpiperidin-1-yl)methyl)-1H-pyrrolo[3,2-b]pyridine-5-carboxamide]
pIC50 (Cbl-b (aa36-427)): 8.77 | pIC50 (Cbl (aa49-434)): 7.79

CC(C)CNCc1cc(C(=O)Nc2cncc([C@]3(c4nncn4C)C[C@@H](C)C3)c2)nc2c(F)c[nH]c12 [Compound B48, 3-fluoro-7-((isobutylamino)methyl)-N-(5-((1s, 3s)-3-methyl-1-(4-methyl-4H-1,2,4-triazol-3-yl)cyclobutyl)pyridin-3-yl)-1H-pyrrolo[3,2-b]pyridine-5-carboxamide]
pIC50 (Cbl-b (aa36-427)): 9.05 | pIC50 (Cbl (aa49-434)): 8.49

C[C@H]1CCCN(Cc2cc(C(=O)Nc3cccc([C@]4(c5nncn5C)C[C@@H](CC#N)C4)c3)nc3c(F)c[nH]c23)C1 [Compound B11, N-(3-((1s,3R)-3-(cyanomethyl)-1-(4-methyl-4H-1,2,4-triazol-3-yl)cyclobutyl)phenyl)-3-fluoro-7-(((S)-3-methylpiperidin-1-yl)methyl)-1H-pyrrolo[3,2-b]pyridine-5-carboxamide]
pIC50 (Cbl-b (aa36-427)): 8.89 | pIC50 (Cbl (aa49-434)): 7.85

C[C@H]1CCCN(Cc2cc(C(=O)Nc3cccc([C@]4(c5nncn5C)C[C@@H](CC#N)C4)c3)c3ncc(F)n3c2)C1 [Compound A12, 3-fluoro-6-{[(3S)-3-methylpiperidin-1-yl]methyl}-N-{3-[(1s, 3s)-3-(cyanomethyl)-1-(4-methyl-1,2,4-triazol-3-yl)cyclobutyl]phenyl}imidazo[1,2-a]pyridine-8-carboxamide]
pIC50 (Cbl-b (aa36-427)): 8.41 | pIC50 (Cbl (aa49-434)): 7.49

C[C@H](NCc1cc(C(=O)Nc2cccc([C@]3(c4nncn4C)C[C@@H](CC#N)C3)c2)c2nccn2c1)C1CCC1 [Compound A38, N-(3-((1s,3R)-3-(cyanomethyl)-1-(4-methyl-4H-1,2,4-triazol-3-yl)cyclobutyl)phenyl)-6-((((S)-1-cyclobutylethyl)amino)methyl)imidazo[1,2-a]pyridine-8-carboxamide]
pIC50 (Cbl-b (aa36-427)): 8.85 | pIC50 (Cbl (aa49-434)): 8.62

CC(C)CNCc1cc(C(=O)Nc2cncc([C@]3(c4nncn4C)C[C@@H](C)C3)c2)c2ncc(Cl)n2c1 [Compound A83, 3-chloro-6-((isobutylamino)methyl)-N-(5-((1s, 3s)-3-methyl-1-(4-methyl-4H-1,2,4-triazol-3-yl)cyclobutyl)pyridin-3-yl)imidazo[1,2-a]pyridine-8-carboxamide]
pIC50 (Cbl-b (aa36-427)): 9.00 | pIC50 (Cbl (aa49-434)): 8.77

C[C@H](NCc1cc(C(=O)Nc2cncc([C@]3(c4nncn4C)C[C@@H](C)C3)c2)c2ncc(F)n2c1)C1CC1 [Compound A72, 6-({[(1S)-1-cyclopropylethyl]amino}methyl)-3-fluoro-N-{5-[(1r, 3s)-3-methyl-1-(4-methyl-1,2,4-triazol-3-yl)cyclobutyl]pyridin-3-yl}imidazo[1,2-a]pyridine-8-carboxamide]
pIC50 (Cbl-b (aa36-427)): 9.40 | pIC50 (Cbl (aa49-434)): 9.22

Cn1cnnc1[C@]1(c2cccc(NC(=O)c3cc(CNCC4CCC(F)(F)CC4)c4[nH]ccc4n3)c2)C[C@H](CC#N)C1 [Compound B22, N-(3-((1s, 3s)-3-(cyanomethyl)-1-(4-methyl-4H-1,2,4-triazol-3-yl)cyclobutyl)phenyl)-7-((((4,4-difluorocyclohexyl)methyl)amino)methyl)-1H-pyrrolo[3,2-b]pyridine-5-carboxamide]
pIC50 (Cbl-b (aa36-427)): 8.40 | pIC50 (Cbl (aa49-434)): 7.71
